Laboratory results reported in patent publication US20120083518A1, “Cancer Treatment Targeting BRCA1-IRIS” (priority 2010, published 2012).

Experiments:
Type in all cases: cell-based, human
[1] = test system: AKT1, AKT2 and survivin expression in OVCAR-5 cells; test: Immunoblot of AKT1, AKT2 and survivin; details: OVCAR-5, cisplatin 35 μM 24 h alone
From the text: (§1) Immunoblotting. […] Bcl-2 (clone 124; Dako Diagnostics AG), Bcl-xL (Transduction Laboratories), actin (Ab-1, CP01, Oncogene) and phospho-Survivin (T34, Novus Biologicals). Mouse antibody against BRCA1-IRIS was generated in our laboratory.
(§2) BRCA1-IRIS downregulation sensitizes ovarian cancer cell lines to cisplatin-induced survivin downregulation and cell death.

[2] = test system: BRCA1-IRIS, AKT and survivin expression in SK-OV-3 cells; test: Immunoblot of BRCA1-IRIS, AKT, p-AKT and survivin; details: SK-OV-3, cisplatin 35 μM 24 h alone
Method: as §1
BRCA1-IRIS-induced survivin expression is partially AKT-dependent. AKT (siRNA silences AKT1 and AKT2), BRCA1-IRIS, survivin or AKT and BRCA1-IRIS were silenced in SK-OV-3 cells (endogenously overexpressing all proteins, see FIG. 1B) for 72 h. […] Survivin silencing had no effect on BRCA1-IRIS or AKTs the expression (FIG. 2G). Identical results were obtained using MCAS cell line.
(§3) BRCA1-IRIS overexpression-induced survivin expression is partially PI3′K/AKT-independent. To study this further, MCAS or SK-OV-3 cells were exposed to the PI3′K inhibitor, LY294002 for 24 h or were transfected with BRCA1-IRIS siRNA for 48 h before they were exposed to LY294002 and left for another 24 h. […] Indeed, LY294002 decreased survivin expression in HOSE/vector cells but had little effect in HOSE/IRIS cells (FIG. 3B).
as §2

[3] = test system: BRCA1-IRIS, AKT and survivin expression in HOSE cells; test: Immunoblot of BRCA1-IRIS, AKT and survivin after cisplatin; details: 24 h
From the text: as §1
Ovarian cancer cells expressing high level of survivin usually are cisplatin-resistant.

[4] = test system: AKT and survivin expression in MCAS cells; test: Immunoblot of AKT, p-AKT and survivin; details: cisplatin 35 μM 24 h alone
Method: as §1, §3, §2

HOSE/survivin cells = test: MTT cell viability after cisplatin; details: cisplatin 48 h
From the text: (§4) MTT and activated caspases 3 and 7 assays. Done using the Cell Titer 96® AQueous One Solution Cell Proliferation Assay (#G3580, Promega) Caspase-Glo 3/7 Assay (#G8091, Promega), respectively as per manufacturer's instructions. Measurements were obtained using optical at 490 nm. Each experiment was done in 8 samples and the whole experiment was repeated 3 separate times.

HOSE/AKT3 cells = test: MTT cell viability after cisplatin; details: HOSE/AKT3, cisplatin 48 h
From the text: as §4

HOSE/vector cells = test: MTT cell viability after cisplatin; details: cisplatin 48 h
From the text: as §4

HOSE/IRIS cells = test: MTT cell viability after cisplatin; details: cisplatin 48 h
From the text: as §4

HOSE/AKT2 cells = test: MTT cell viability after cisplatin; details: HOSE/AKT2, cisplatin 48 h
From the text: as §4

HOSE/AKT1 cells = test: MTT cell viability after cisplatin; details: HOSE/AKT1, cisplatin 48 h
From the text: as §4

SK-OV-3 cells = test: MTT cell viability after cisplatin; details: SK-OV-3, cisplatin 48 h
Method: as §4, with “times. […] As expected, low viability and high level of active caspase3/7 were detected in IGROV-1 (FIG. 5C), showing an IC50 of ˜5 μM.” for “times.”

IGROV-1 cells = test: MTT cell viability after cisplatin; details: IGROV-1, cisplatin 48 h
Method: as §4, with “times. […] As expected, low viability and high level of active caspase3/7 were detected in IGROV-1 (FIG. 5C), showing an IC50 of ˜5 μM.” for “times.”

MCAS cells = test: MTT cell viability after cisplatin; details: cisplatin 48 h
Method: as §4, with “times. […] As expected, low viability and high level of active caspase3/7 were detected in IGROV-1 (FIG. 5C), showing an IC50 of ˜5 μM.” for “times.”

OVCAR-5 cells = test: MTT cell viability after cisplatin; details: OVCAR-5, cisplatin 48 h
Method: as §4, with “times. […] As expected, low viability and high level of active caspase3/7 were detected in IGROV-1 (FIG. 5C), showing an IC50 of ˜5 μM.” for “times.”

[5] = test system: p38MAPK phosphorylation in induced IRIS3 cells; test: Immunoblot of p38MAPK phosphorylation (p-p38MAPK/p38MAPK, ImageJ)
Method: (§5) IRIS 1 and IRIS3 induced for 72 h were exposed to 0, 10, 20 or 40 mJ/cm^2 of UVC irradiation. After 24 h, compared with IRIS1, induced IRIS3 cells treated with 0 mJ/cm^2 UVC had higher levels of BRCA1-IRIS, p53, WIP1, p-p38MAPK, yet similar levels of p38MAPK and p-p53 (FIG. 9F). In 10 and 20 mJ/cm^2 treated cells, BRCA1-IRIS, p53 and WIP1 levels remained higher in induced IRIS3 and no change in p38MAPK level (FIG. 9F). […] Finally, in 40 mJ/cm^2 UVC-treated cells, BRCA1-IRIS, p53 and WIP1 levels were still detectable in induced IRIS3 but not in IRIS1 cells (FIG. 9F). In contrast, IRIS1 and not induced IRIS3 cells contained detectable levels of p-p53 and p-p38MAPK (FIG. 9F). The intensity of the p53, p-p53, p38MAPK and p-p38MAPK bands in FIG. 9F were measured using ImageJ program (NIH) to estimate the level of p53 and p38MAPK activation in BRCA1-IRIS overexpressing cells. About 50% of p53 in IRIS1 cells was phosphorylated before UVC exposure that rose to 80-100% after the exposure (FIG. 9G). In contrast, only 20% of p53 was phosphorylated in induced IRIS3 cells before UVC dropping to <10% after UVC (FIG. 9G). p38MAPK phosphorylation was undetectable in IRIS1 cells before UVC exposure but rose to ˜100% after UVC (FIG. 9G). In induced IRIS3 cells, the 100% of p38MAPK phosphorylated before UVC exposure dropped to <20% after UVC exposure (FIG. 9G). […]

[6] = test system: p53 phosphorylation in induced IRIS3 cells; test: Immunoblot of p53 phosphorylation (p-p53/p53, ImageJ)
Method: as §5

induced IRIS3 cells = test: TUNEL detection (FragEL DNA fragmentation kit)
Method: (§6) HME and induced IRIS3 (72 h) cells were exposed to 40 mJ/cm^2 UVC, 10 μM of etoposide or 15 μM of H2O2 in the presence or absence of 10 μM of SB203580, p53 siRNA or 10 μM of CCT007093.
(§7) The Flurescein FragEL DNA Fragmentation Detection Kit was used according to the supplier (Calbiochem) protocol.

HME cells = test: TUNEL detection (FragEL DNA fragmentation kit)
Method: as §6, §7

[7] = test system: p53 phosphorylation in HME cells; test: Immunoblot of p53 phosphorylation; details: 10 μM CCT007093 alone
Method: (§8) CCT007093 is a novel WIP1 specific inhibitor. The HME and induced IRIS3 (72 h) cells were untreated or exposed to 20 mJ/cm^2 UVC, 10 μM of CCT007093 or both. BRCA1-IRIS, p53 and WIP1 level was low in HME and high in IRIS3 cells, whereas p38MAPK was high in both the cell lines. These levels were not changed in both cell lines following any of the treatments (FIG. 9H). p-p53 level was low in untreated HME and IRIS3 cells (FIG. 9H, lanes 1 and 5), rose after UVC treatment, decreased after CCT007093 treatment and increased in UVC+CCT007093-treated HME cells (FIG. 9H) Importantly, in induced IRIS3 cells, p-p53 level decreased after UVC treatment, increased after CCT007093 treatment and remained high after the combined treatment (FIG. 9H).
(§9) BT474, MCF7 and SKBR3 cells were maintained in Roswell Park Memorial Institute medium (Invitrogen) supplemented with 10% fetal bovine serum and antibiotics. SOAS2 and HEK293T cells were maintained Dulbecco's Modified Eagle medium (Invitrogen) with 10% serum. HME maintenance was as described in ElShamy and Livingston, 2004. Cancer or HME cells were at 80% confluence in 10 cm^2 dishes and were treated with UVC (different doses), SB203580 (10 μM, Sigma, St. Louis, Mo., USA), etoposide (10 μM, Sigma) and H2O2 (15 μM, Sigma) or CCT007093 (10 μM, Santa Cruz, Santa Cruz, Calif., USA), and these drugs were added directly to the cells.

[8] = test system: p38MAPK phosphorylation in HME cells; test: Immunoblot of p38MAPK phosphorylation; details: 10 μM CCT007093
Method: as §8, §9

SKBR3 cells = test: LIVE/DEAD cell death assay; details: for level of cell death: SKBR3, all conditions, 10 μM etoposide or 15 μM H2O2
Method: (§10) MCF7 and SKBR3 cell lines transfected with luciferase or BRCA1-IRIS siRNAs in the presence or absence of p38MAPK inhibitor (SB203580) or p53 siRNA were exposed to 40 mJ/cm^2 UVC, 10 μM etoposide or 15 μM H2O2. […] This was confirmed by phase-contrast cell counting (FIG. 9I) and trypan blue exclusion using ViCell (Beckman Coulter, Fullerton, Calif., USA, FIG. 9J).
(§11) The LIVE/DEAD Fixable Dead Cell Stain Kit was used according to the supplier (Invitrogen) protocol.

MCF7 cells = test: LIVE/DEAD cell death assay; details: for level of cell death: MCF7, all conditions, 10 μM etoposide or 15 μM H2O2
Method: as §10, §11

[9] = test system: p53 and p38MAPK phosphorylation in induced IRIS2 cells; test: Immunoblot of p-p53 and p-p38MAPK after etoposide
Method: (§12) Induced IRIS2 on the other hand maintained high level of BRCA1-IRIS, p53 and WIP1 even in the presence of 50 μM of etoposide and had similar level of total p38MAPK (FIG. 8I). Etoposide treatment triggered p53 phosphorylation in IRIS1 but not in the induced IRIS2 cells (Supplementary FIG. 8I).

[10] = test system: p53 and p38MAPK phosphorylation in IRIS1 cells; test: Immunoblot of p-p53 and p-p38MAPK after etoposide
Method: as §12

[11] = induced IRIS3, 20 mJ/cm^2 UVC in presence of 10 μM CCT007093
[12] = induced IRIS3, 10 μM etoposide or 15 μM H2O2
[13] = HME, 10 μM etoposide or 15 μM H2O2

## N.N.[Cl][Pt][Cl] [cisplatin]
[1]
  expression of AKT1, AKT2 and survivin: modestly decreased
[2]
  expression of AKT1, AKT2 and survivin: modestly decreased
[3]; high concentrations cisplatin (>50 μM)
  BRCA1-IRIS, AKT and survivin expression: abolished
[3]; low concentrations cisplatin (≦50 μM)
  BRCA1-IRIS, AKT and survivin expression: triggered
[4]
  expression of AKT1, AKT2 and survivin: modestly decreased
HOSE/survivin cells
  IC50: ~75 µM
HOSE/AKT3 cells
  IC50: 15 to 20 µM
HOSE/vector cells
  IC50: 15 to 20 µM
HOSE/IRIS cells
  IC50: ~75 µM
HOSE/AKT2 cells
  IC50: ~75 µM
HOSE/AKT1 cells
  IC50: ~75 µM
SK-OV-3 cells
  IC50: ~40 µM
IGROV-1 cells
  IC50: ~5 µM
MCAS cells
  IC50: ~40 µM
OVCAR-5 cells
  IC50: ~25 µM

## O=C1/C(=C/c2cccs2)CC/C1=C\c1cccs1 [CCT007093]
[5]; induced IRIS3, 10 μM CCT007093 alone or with UVC
  p-p38MAPK level: remained high
[5]; [11]
  p38MAPK phosphorylated (p-p38MAPK/p38MAPK ratio): ~55%
[6]; induced IRIS3, 10 μM CCT007093 alone
  p-p53 level: increased
[6]; [11]
  p53 phosphorylated (p-p53/p53 ratio): ~75%
Induced IRIS3 cells; induced IRIS3, 10 μM CCT007093, no stress treatment
  number of TUNEL+ cells: not
Induced IRIS3 cells; induced IRIS3 under UVC, etoposide or H2O2, 10 μM CCT007093 vs vehicle
  number of TUNEL+ cells: significantly increased
HME cells; HME under UVC, etoposide or H2O2, 10 μM CCT007093 vs vehicle
  number of TUNEL+ cells: not
HME cells; HME, 10 μM CCT007093, no stress treatment
  number of TUNEL+ cells: increased slightly yet significantly
[7]
  p-p53 level: decreased
[8]
  p-p38MAPK level: increased

## COc1cc([C@@H]2c3cc4c(cc3[C@@H](O[C@@H]3O[C@@H]5CO[C@@H](C)O[C@H]5[C@H](O)[C@H]3O)[C@H]3COC(=O)[C@H]23)OCO4)cc(OC)c1O [etoposide]
Induced IRIS3 cells; [12]
  number of TUNEL+ cells: only modestly increasing
HME cells; [13]
  number of TUNEL+ cells: markedly increased
SKBR3 cells
  level of cell death: increased
MCF7 cells
  level of cell death: increased
[9]; induced IRIS2, after etoposide treatment
  p-p38MAPK level: sharply dropped
[9]; induced IRIS2, etoposide 5, 10 or 50 μM, 24 h
  p53 phosphorylation: not
[10]; IRIS1, after etoposide treatment
  p-p38MAPK level: increased significantly
[10]; IRIS1, etoposide 5, 10 or 50 μM, 24 h
  p53 phosphorylation: triggered

## C[S+]([O-])c1ccc(-c2nc(-c3ccncc3)c(-c3ccc(F)cc3)[nH]2)cc1 (centres unmarked) [SB203580]
Induced IRIS3 cells; induced IRIS3 under UVC, etoposide or H2O2, plus 10 μM SB203580 or p53 siRNA
  number of TUNEL+ cells: stayed the same
HME cells; HME under UVC, etoposide or H2O2, plus 10 μM SB203580 or p53 siRNA
  number of TUNEL+ cells: significantly reduced
SKBR3 cells; SKBR3, BRCA1-IRIS silenced plus SB203580 or p53 siRNA
  dead cells induced by BRCA1-IRIS silencing: significantly reduced
MCF7 cells; MCF7, BRCA1-IRIS silenced plus SB203580 or p53 siRNA
  dead cells induced by BRCA1-IRIS silencing: significantly reduced

## OO [H2O2]
Induced IRIS3 cells; [12]
  number of TUNEL+ cells: only modestly increasing
HME cells; [13]
  number of TUNEL+ cells: markedly increased
SKBR3 cells
  level of cell death: increased
MCF7 cells
  level of cell death: increased
